Like-named read-outs stand apart in the source and are kept apart here.
Columns and labels:
134 cancer cell lines = experiment: Cell viability assay (ATPlite, 72 hours), IC50 on cancer cell line panel
[1] = target: T1, panel of 255 wild-type kinases (Homo sapiens, UniProt Q9BZL6); experiment: Kinase panel profiling at 1 µmol/L (MSA or IMAP), percentage inhibition; type: biochemical; conditions: kinase PKD2; 1 µmol/L single concentration; read-out: %-inhibition at 1 µmol/L, PKD2
T1 sequence (Q9BZL6 1-878): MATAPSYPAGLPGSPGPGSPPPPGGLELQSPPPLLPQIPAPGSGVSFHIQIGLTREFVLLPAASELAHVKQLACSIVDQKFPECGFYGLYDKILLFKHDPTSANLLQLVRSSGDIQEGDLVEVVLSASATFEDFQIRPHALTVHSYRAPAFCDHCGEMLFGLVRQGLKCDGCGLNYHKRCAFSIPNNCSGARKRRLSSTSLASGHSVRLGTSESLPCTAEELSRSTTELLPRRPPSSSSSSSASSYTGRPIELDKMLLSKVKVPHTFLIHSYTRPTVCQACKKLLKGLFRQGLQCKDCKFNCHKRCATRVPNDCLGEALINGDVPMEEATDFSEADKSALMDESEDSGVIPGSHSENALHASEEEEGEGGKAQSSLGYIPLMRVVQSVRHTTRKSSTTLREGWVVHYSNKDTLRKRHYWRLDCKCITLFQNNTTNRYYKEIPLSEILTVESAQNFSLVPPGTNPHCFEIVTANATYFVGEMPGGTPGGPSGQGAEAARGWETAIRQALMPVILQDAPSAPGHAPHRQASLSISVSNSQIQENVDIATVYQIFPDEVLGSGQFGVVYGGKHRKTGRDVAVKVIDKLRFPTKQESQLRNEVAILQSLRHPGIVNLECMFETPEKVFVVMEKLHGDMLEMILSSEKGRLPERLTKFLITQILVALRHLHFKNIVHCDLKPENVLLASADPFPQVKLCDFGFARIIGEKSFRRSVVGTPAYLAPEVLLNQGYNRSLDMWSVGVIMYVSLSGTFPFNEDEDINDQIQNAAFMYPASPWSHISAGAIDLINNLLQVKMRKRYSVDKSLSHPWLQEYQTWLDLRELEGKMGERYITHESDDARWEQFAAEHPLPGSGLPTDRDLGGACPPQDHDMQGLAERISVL

Compound: C[C@H](Nc1ncnc2nc[nH]c12)c1cc2cccc(Cl)c2c(=O)n1-c1ccccc1 [duvelisib]
- IC50 (134 cancer cell lines; Homo sapiens, MV4-11, read-out: IC50 in cell proliferation assay, MV4-11 cell line (FLT3 ITD)): 0.014 µM
- IC50 (134 cancer cell lines; Homo sapiens, MeWo, read-out: IC50 in cell proliferation assay, MeWo cell line): 28.1 µM
- IC50 (134 cancer cell lines; Homo sapiens, NCCIT, read-out: IC50 in cell proliferation assay, NCC-IT cell line): 10.6 µM
- IC50 (134 cancer cell lines; Homo sapiens, NCI-H82, read-out: IC50 in cell proliferation assay, cell line NCI-H82): > 31.6 µM
- IC50 (134 cancer cell lines; Homo sapiens, NCI-H460, read-out: IC50 in cell proliferation assay, NCI-H460 cell line): 11.1 µM
- IC50 (134 cancer cell lines; Homo sapiens, NCI-H661, read-out: IC50 in cell proliferation assay, NCI-H661 cell line): 3.22 µM
- IC50 (134 cancer cell lines; Homo sapiens, NCI-H716, read-out: IC50 in cell proliferation assay, cell line NCI-H716 (FGFR2-COL14A1)): 5.31 µM
- IC50 (134 cancer cell lines; Homo sapiens, NCI-H1650, read-out: IC50 in cell proliferation assay, NCI-H1650 cell line (EGFR exon19del)): 11 µM
- IC50 (134 cancer cell lines; Homo sapiens, NCI-H1975, read-out: IC50 in cell proliferation assay, NCI-H1975 cell line (EGFR p.L858R + p.T790M)): 7.77 µM
- IC50 (134 cancer cell lines; Homo sapiens, NCI-H2228, read-out: IC50 in cell proliferation assay, NCI-H2228 cell line (EML4-ALK)): 13.8 µM
- IC50 (134 cancer cell lines; Homo sapiens, OVCAR-3, read-out: IC50 in cell proliferation assay, cell line OVCAR-3): 0.617 µM
- IC50 (134 cancer cell lines; Homo sapiens, PFSK-1, read-out: IC50 in cell proliferation assay, cell line PFSK-1): 13.1 µM
- IC50 (134 cancer cell lines; Homo sapiens, RL95-2, read-out: IC50 in cell proliferation assay, cell line RL95-2 (EGFR p.A289V)): 3.6 µM
- IC50 (134 cancer cell lines; Homo sapiens, RPMI-7951, read-out: IC50 in cell proliferation assay, cell line RPMI-7951 (BRAF p.V600E)): 2.81 µM
- IC50 (134 cancer cell lines; Homo sapiens, RS4-11, read-out: IC50 in cell proliferation assay, cell line RS4;11): 9.2 µM
- IC50 (134 cancer cell lines; Homo sapiens, Rec1, read-out: IC50 in cell proliferation assay, cell line REC-1): 14.4 µM
- IC50 (134 cancer cell lines; Homo sapiens, SHP77, read-out: IC50 in cell proliferation assay, cell line SHP-77): > 31.6 µM
- IC50 (134 cancer cell lines; Homo sapiens, SK-BR-3, read-out: IC50 in cell proliferation assay, cell line SK-BR-3 (ERBB2 amplification)): 2.33 µM
- IC50 (134 cancer cell lines; Homo sapiens, SK-N-AS, read-out: IC50 in cell proliferation assay, cell line SK-N-AS): > 31.6 µM
- IC50 (134 cancer cell lines; Homo sapiens, SK-N-FI, read-out: IC50 in cell proliferation assay, cell line SK-N-FI): > 31.6 µM
- IC50 (134 cancer cell lines; Homo sapiens, SK-N-MC, read-out: IC50 in cell proliferation assay, cell line SK-N-MC): 12.2 µM
- IC50 (134 cancer cell lines; Homo sapiens, SK-N-SH, read-out: IC50 in cell proliferation assay, cell line SK-N-SH (ALK p.F1174L)): 12.6 µM
- IC50 (134 cancer cell lines; Homo sapiens, SNU-5, read-out: IC50 in cell proliferation assay, cell line SNU-5 (MET amplification)): 11.2 µM
- IC50 (134 cancer cell lines; Homo sapiens, SNU-16, read-out: IC50 in cell proliferation assay, cell line SNU-16 (FGFR2 amplification)): > 31.6 µM
- IC50 (134 cancer cell lines; Homo sapiens, SNU-C2B, read-out: IC50 in cell proliferation assay, cell line SNU-C2B (EGFR p.R165Q)): 9.36 µM
- IC50 (134 cancer cell lines; Homo sapiens, SU-DHL-1, read-out: IC50 in cell proliferation assay, cell line SU-DHL-1 (NPM1-ALK)): 22.6 µM
- IC50 (134 cancer cell lines; Homo sapiens, SU-DHL-6, read-out: IC50 in cell proliferation assay, cell line SU-DHL-6): 0.00177 µM
- IC50 (134 cancer cell lines; Homo sapiens, SUP-T1, read-out: IC50 in cell proliferation assay, cell line SUP-T1): 29.3 µM
- IC50 (134 cancer cell lines; Homo sapiens, SW48, read-out: IC50 in cell proliferation assay, cell line SW48 (EGFR p.G719S)): 5.94 µM
- IC50 (134 cancer cell lines; Homo sapiens, SW480, read-out: IC50 in cell proliferation assay, cell line SW480): 30.5 µM
- IC50 (134 cancer cell lines; Homo sapiens, SW626, read-out: IC50 in cell proliferation assay, cell line SW626): 24.9 µM
- IC50 (134 cancer cell lines; Homo sapiens, SW780, read-out: IC50 in cell proliferation assay, cell line SW780 (FGFR3-BAIAP2L1)): > 31.6 µM
- IC50 (134 cancer cell lines; Homo sapiens, SW837, read-out: IC50 in cell proliferation assay, cell line SW837): 25.9 µM
- IC50 (134 cancer cell lines; Homo sapiens, SW872, read-out: IC50 in cell proliferation assay, cell line SW872 (BRAF p.V600E)): 23.7 µM
- IC50 (134 cancer cell lines; Homo sapiens, SW900, read-out: IC50 in cell proliferation assay, cell line SW900): 7.57 µM
- IC50 (134 cancer cell lines; Homo sapiens, SW948, read-out: IC50 in cell proliferation assay, cell line SW948): 12.7 µM
- IC50 (134 cancer cell lines; Homo sapiens, SW982, read-out: IC50 in cell proliferation assay, cell line SW982 (BRAF p.V600E)): 4.21 µM
- IC50 (134 cancer cell lines; Homo sapiens, SW-620, read-out: IC50 in cell proliferation assay, cell line SW620): 20.1 µM
- IC50 (134 cancer cell lines; Homo sapiens, T98G, read-out: IC50 in cell proliferation assay, cell line T98G): 4.8 µM
- IC50 (134 cancer cell lines; Homo sapiens, TCC-SUP, read-out: IC50 in cell proliferation assay, cell line TCCSUP): 21.6 µM
- IC50 (134 cancer cell lines; Homo sapiens, THP-1, read-out: IC50 in cell proliferation assay, cell line THP-1): 0.15 µM
- IC50 (134 cancer cell lines; Homo sapiens, U2OS, read-out: IC50 in cell proliferation assay, cell line U2OS): 8.82 µM
- IC50 (134 cancer cell lines; Homo sapiens, U-87 MG, read-out: IC50 in cell proliferation assay, cell line U-87MG ATCC): 10.5 µM
- IC50 (134 cancer cell lines; Homo sapiens, U-118-MG, read-out: IC50 in cell proliferation assay, cell line U-118MG): > 31.6 µM
- IC50 (134 cancer cell lines; Homo sapiens, UMUC3, read-out: IC50 in cell proliferation assay, cell line UM-UC-3): 25.3 µM
- IC50 (134 cancer cell lines; Hs766T, read-out: IC50 in cell proliferation assay, Hs 766T cell line): 18.6 µM
- IC50 (134 cancer cell lines; L-82, read-out: IC50 in cell proliferation assay, L-82 cell line (NPM1-ALK)): 22.1 µM
- IC50 (134 cancer cell lines; Rh30, read-out: IC50 in cell proliferation assay, cell line Rh30): 12.2 µM
- IC50 (134 cancer cell lines; read-out: IC50 in cell proliferation assay, 11-18 cell line (EGFR p.L858R)): 12.9 µM
- IC50 (134 cancer cell lines; read-out: IC50 in cell proliferation assay, Hs 852.T cell line): 21.4 µM
- IC50 (134 cancer cell lines; read-out: IC50 in cell proliferation assay, JAR cell line): 0.234 µM
- IC50 (134 cancer cell lines; read-out: IC50 in cell proliferation assay, cell line 5637): 28 µM
- IC50 (134 cancer cell lines; read-out: IC50 in cell proliferation assay, cell line A-388): 12.4 µM
- IC50 (134 cancer cell lines; read-out: IC50 in cell proliferation assay, cell line DB): > 31.6 µM
- IC50 (134 cancer cell lines; read-out: IC50 in cell proliferation assay, cell line DEL (NPM1-ALK)): > 31.6 µM
- IC50 (134 cancer cell lines; read-out: IC50 in cell proliferation assay, cell line ES-2 (BRAF p.V600E)): > 31.6 µM
- IC50 (134 cancer cell lines; read-out: IC50 in cell proliferation assay, cell line PA-1): 10.7 µM
- IC50 (134 cancer cell lines; read-out: IC50 in cell proliferation assay, cell line PC-3): 5.81 µM
- IC50 (134 cancer cell lines; read-out: IC50 in cell proliferation assay, cell line RD): 27.6 µM
- IC50 (134 cancer cell lines; read-out: IC50 in cell proliferation assay, cell line RKO (BRAF p.V600E)): 8.82 µM
- IC50 (134 cancer cell lines; read-out: IC50 in cell proliferation assay, cell line RL): 24 µM
- IC50 (134 cancer cell lines; read-out: IC50 in cell proliferation assay, cell line RT-4 (FGFR3-TACC3)): 9.68 µM
- IC50 (134 cancer cell lines; read-out: IC50 in cell proliferation assay, cell line SR (NPM1-ALK)): 14.1 µM
- IC50 (134 cancer cell lines; read-out: IC50 in cell proliferation assay, cell line T24): 31.2 µM
- IC50 (134 cancer cell lines; read-out: IC50 in cell proliferation assay, cell line TT (RET p.C634W)): > 31.6 µM
- IC50 (134 cancer cell lines; read-out: IC50 in cell proliferation assay, cell line VA-ES-BJ): 2.94 µM
- inhibition at 1 µM [1]: -12%

Source: publication PMC9516332 (Frontiers in Oncology, 2022)
